Here are results for four compounds from patent publication US20060014938A1, “Stable aqueous colloidal lanthanide oxides” (priority 2004, published 2006).

A short description of series [1]: MRI of tubes using a T1 pulse sequence. Conditions: 1.0 and 0.1 nM Gd, same molar concentrations.
Experimental: Colloidal gadolinium Oxide prepared according to Example 9, and Gadolinium DTPA, each at a concentration of each of 1.0 and 0.1 nM Gd, were added to a volume of 1 mL in a 2 mL screw cap plastic tube, and were subjected to MRI using a T1 pulse sequence.
Row 3 is water, a negative control.
The text on series [2]:
Table 1 summarizes characteristics of gadolinium DTPA (a previously described MRI contrast agent) and of compositions that are gadolinium oxide complexed with reduced dextran as provided herein, comparing characteristics of these to an ideal vascular contrast agent.

Another series concerns mice. Conditions: cited from earlier work.
Series [3] concerns pig mesenchymal stem cells (MSC). As to the kind of experiment: Cell viability test. Format: cell-based. As to the method:
FIG. 1 is a set of photomicrographs showing results from a cell viability test using Pig MSCs.
In all experiments colloid was incubated with cells in growth medium for 12 hours (at a concentration of 1 mg Eu/mL) which was then washed away.

The nature of series [4]: Size and aqueous stability of colloid after crosslinking or surface modification. Format: physicochemical. As to the method:
The dextran covered lanthanide colloid was prepared according to Example 6 except that lanthanum chloride was substituted for samarium chloride. In a fume hood, to 40 mL of colloid was added 100 mL of 5M NaOH, 40 mL distilled water and 40 mL epichlorohydrin. The mixture was incubated at room temperature for about 24 hours with shaking to promote interaction of the organic phase (epichlorohydrin) and aqueous phase which includes the dextran covered colloid. Epichlorohydrin was removed by placing the colloid in a dialysis bag and dialyzing against 20 changes of distilled water of 20 liters each. After dialysis, the product was filtered through a 0.2 micron filter and stored at 4° C. The size and aqueous stability of the colloid suspension were unaffected by this treatment.
The reduced dextran covered colloid was prepared essentially according to Example 10 except that lutetium chloride was substituted for gadolinium chloride. In a fume hood, to 40 mL of colloid was added 100 mL of 5M NaOH, 40 mL of distilled water and 40 mL of epichlorohydrin. The mixture was incubated at room temperature for about 24 hours with shaking to promote interaction of the organic phase (epichlorohydrin) and aqueous phase which includes the dextran covered colloid. Epichlorohydrin was removed by placing the colloid in a dialysis bag and dialyzing against 5 changes of distilled water of 4 liters each. […]

With `O=C([O-])CN(CCN(CC(=O)[O-])CC(=O)[O-])CCN(CC(=O)[O-])CC(=O)[O-].[Gd+3]` [Gadolinium DTPA], the “potency as contrast agent (T1 weighted image)” value in series [1] is on record as “equally potent”. In series [2], the Autoclavable without excipients result was “Yes” and the “Non toxic at vast excess” value is on record as “Yes”.
On to `[Cl][Gd]([Cl])[Cl]` [gadolinium chloride], for which, in the series with mice, the “most common lesions after injection” value is “mineral emboli in capillaries, accumulation of mineral in the mononuclear phagocytic system, hepatocellular necrosis, and lymphoid depletion, necrosis and mineralisation in the spleen”.
For `C[CH2][Hg][S]c1ccccc1C(=O)[O-].[Na+]` [thimerasol], the “state of cells (FIG. 1 Panel C)” value in series [3] (added to growth medium, after 24 hours) was “severe deterioration”. Further, the “time to cell death” value in series [3] (positive control) is on record as “less than 24 hours”.
As for “Gadolinium Oxide Colloid Modified with Biotin [Example 22]”, in series [4], the “size and aqueous stability of the colloid suspension after the treatment” value is reported as “unaffected”.
